Data taken from ChEMBL document CHEMBL1128629, “Mechanism-based inactivation of porphobilinogen synthase: Substitution of ketone functionality in the substrate with a thioester” (Bioorg Med Chem Lett, 1995).
One block for each compound: values may come before it.

Tests used:
Details in all cases: Escherichia coli
[1] = target: T1, Delta-aminolevulinic acid dehydratase (Homo sapiens) (UniProt P13716); test: Inhibitory activity against porphobilinogen synthase in presence of 150 uM over 30 min
T1 sequence (whole entry): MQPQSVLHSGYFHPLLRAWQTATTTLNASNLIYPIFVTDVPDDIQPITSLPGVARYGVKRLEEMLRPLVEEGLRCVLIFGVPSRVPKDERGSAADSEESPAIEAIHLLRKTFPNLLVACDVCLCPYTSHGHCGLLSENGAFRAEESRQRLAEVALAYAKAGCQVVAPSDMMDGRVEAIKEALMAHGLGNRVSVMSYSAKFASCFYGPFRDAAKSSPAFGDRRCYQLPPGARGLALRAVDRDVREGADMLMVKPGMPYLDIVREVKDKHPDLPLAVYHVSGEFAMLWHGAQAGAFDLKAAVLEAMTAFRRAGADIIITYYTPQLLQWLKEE

[2] = target: T1, Delta-aminolevulinic acid dehydratase (Homo sapiens); test: Inhibitory activity against porphobilinogen synthase in presence of 5 mM for 30 min; No loss in activity
[3] = target: T1, Delta-aminolevulinic acid dehydratase (Homo sapiens); test: Retention of porphobilinogen synthase activity in presence of 0.3 uM of the compound

- Loss of activity [1]: 80%
Structure (SMILES): NCC(=O)SCC(=O)O

- Loss of activity [2]: No loss in activity
Structure (SMILES): NCC(=O)OCC(=O)O

- Retention [3]: 80%
Structure (SMILES): NCC(=O)CCC(=O)O
